Results taken from patent US4954437A, “Cell encoding recombinant human erythropoietin” (Integrated Genetics, Inc., priority 1986, dated 1990).
Square brackets hold non-standard residues; d marks the D form. Peptide text beside a SMILES is read from it. * marks the point of attachment. Sta = CC(C)C[C@H](N)[C@@H](O)CC(=O)O; Isovaleryl = CC(C)CC(=O)*

Tests used:
[1] = test system: proteases that are active at PH5.0; assay: Protease inhibitors preventing EPO degradation at pH5.0 in 10X concentrated EPO medium, assayed by RIA; assay type: biochemical
Description: (§1) The addition of a dye column to step 1 gives some additional purification and, more importantly, removes contaminating proteases from EPO and consequently allows higher EPO recoveries at the S-Sepharose Fast Flow step. The clarified media was loaded on a Blue Trisacryl-M column (Pharmacia) equilibrated with 10 mM NaPO4 pH6.0, 150 mM NaCl and eluted with a linear salt gradient of 0.15 to 2.5 M NaCl in 10 mM NaPO4 pH6.0 and then flow-dialyzed into 50 mM Na Acetate, pH5.0 containing 15mM NaCl. The recovery of EPO from the Blue Trisacryl column was almost complete and the recovery on the following S-Sepharose Fast Flow column was 86% compared to 60% in example 1. […] This degradation seems to be caused by proteases that are active at PH5.0. The improved yields in step 2 as illustrated in this example can be attributed to the separation of proteases from the EPO protein by the Blue Trisacryl column. (Other commercially available dyes can also be used.)
Protease inhibitors can also be added to the conditioned medium in order to improve EPO yields. Several commercially available protease inhibitors were tested to see if they could prevent EPO degradation at pH5.0. 10X concentrated (Step 1) EPO medium was diluted 1:10 in 50mM Na Acetate, pH5.0 and then incubated at 37° C. with or without protease inhibitors at a concentration of 5 micrograms/ml. […]

rat bone marrow cells = assay: In vitro biological assays (3H-thy uptake assay, 59Fe incorporation into rat bone marrow cells); assay type: cell-based; details: purified rEPO from CES9dog conditioned medium
Description: Foci, representing BPV transformed C127 cells, were detectable 10-14 days after transfection. Supernatants from Plates containing transformants were assayed 17 days after transfection by the ^3 H-thy uptake assay (Krystal 1983, Exp. Hematol., 11/7, 649) and found to contain EPO. 21/2 to 3 weeks after transfection, foci were isolated by the cloning ring method and transferred to T-25 flasks. After the cells reached approximately 20% confluency, the supernatants were tested for EPO production by the ^3 H-thy uptake assay. A total of 76 cell lines (15 CEM, 35 CES and 26 CEG transformants) were transferred into T-75 flasks.
When the cells were confluent, the supernatants were assayed for EPO expression and the cells were counted and frozen. To test the reproducibility and stability of these cell lines, the 21 highest producing cell lines were thawed and rescreened for 24 hours expression levels on a per cell basis. […] Representative 24 hour culture fluids from cell lines CES9dog and CEG4d in T-75 flasks contained 600U/ml and 800U/ml of rEPO as measured by the ^3 H-thy uptake assay using human urinary EPO as a standard and 490 and 540U/ml when measured by the ^59 Fe incorporation assay into rat bone marrow cells in vitro (Goldwasser et al., 1975, Endocrinology 97:315.). […]

Polycythemic mouse = Polycythemic mouse assay (in vivo biological assay); details: for biological activity in in vivo assays: purified rEPO from CES9dog conditioned medium
Description: When the cells were confluent, the supernatants were assayed for EPO expression and the cells were counted and frozen. To test the reproducibility and stability of these cell lines, the 21 highest producing cell lines were thawed and rescreened for 24 hours expression levels on a per cell basis. The five highest producers (3CES and 2CEG transformants) were chosen and expanded into roller bottles to test for growth and production properties. Representative 24 hour culture fluids from cell lines CES9dog and CEG4d in T-75 flasks contained 600U/ml and 800U/ml of rEPO as measured by the ^3 H-thy uptake assay using human urinary EPO as a standard and 490 and 540U/ml when measured by the ^59 Fe incorporation assay into rat bone marrow cells in vitro (Goldwasser et al., 1975, Endocrinology 97:315.). These samples were also active in vivo in the Polycythemic mouse assay as described by Cotes et al., 1961, Nature 191:1065.

[2] = Degradation of EPO incubated at 37° C. under mildly acidic conditions at pH5.0; assay type: physicochemical; details: 10X concentrated medium or partially purified step 2 material
Description: as §1

Row | Molecule | effect on EPO immunoactivity at pH5.0 ([1]; 5 micrograms/ml, 50mM Na Acetate pH5.0, 37° C., over 29 hours, RIA) | IC50 (the concentration at which 50% of the proteases are inhibited) ([1]; 10X concentrated medium, pH5.0, 37° C., 25 hours, RIA (FIG. 9)) | biological activity in in vitro assays (rat bone marrow cells) | biological activity in in vitro assays (rat bone marrow cells; listed as EPO) | activity in vivo in the Polycythemic mouse assay (Polycythemic mouse; 24 hour culture fluids from cell lines CES9dog and CEG4d) | biological activity in in vivo assays (Polycythemic mouse) | biological activity in in vivo assays (Polycythemic mouse; listed as EPO) | t1/2 of degradation [2]
1 | CC(C)CC(=O)N[C@H](C(=O)N[C@H](C(=O)N[C@@H](CC(C)C)[C@@H](O)CC(=O)N[C@@H](C)C(=O)N[C@@H](CC(C)C)[C@@H](O)CC(=O)O)C(C)C)C(C)C [Pepstatin, pepstatin] (Isovaleryl-VV[Sta]A[Sta]-OH) | significant stabilizing effect | approximately 0.02 ug/ml |  |  |  |  |  | 
2 | rEPO: recombinant human erythropoietin produced by BPV transformed mouse C127 cells, N- and O-glycosylated |  |  | high biological activity | high potency | active | high biological activity | high potency | approx. 4 h
